Where two headings read alike, the source gives them in different places.
Legend:
[1] = in vivo; cited from earlier work
[2] = phase III study conducted in 2000; cited from earlier work
SARS-CoV-2 = test: Pilot randomized clinical trial: ICU admission of hospitalized patients with or without calcifediol; type: in vivo; details: calcifediol YES group, 42 patients
Experimental: Preliminary study performed from 10 Mar. 2020 on 72 patients admitted in pneumology department at Hospital Universitario Reina Sofia in Cordoba, according to hospital protocol.
Administration of vitamin D (calcifediol):
The difference is statistically significant: Chi-squared with Yates' correction p=0.0001.
As shown in the results, progression of the disease requiring admission to the ICU occurred in only 1 of all the patients who were treated with calcifediol.

COVID-19 = test: Retrospective multicenter cohort study of patients hospitalized with COVID-19, intrahospital mortality; type: in vivo, human
renin and Ang II = details: rat lung tissues treated with lipopolysaccharide; cited from earlier work
[3] = 14 clinical trials with 1303 patients; cited from earlier work
[4] = cited from earlier work
[5] = patients with ALI and ARDS; cited from earlier work

C[C@H](/C=C/[C@H](C)C(C)(C)O)[C@H]1CC[C@H]2/C(=C/C=C3C[C@@H](O)C[C@H](O)C3)CCC[C@]12C [Paricalcitol, 19-nor-1,25-(OH)2-vitamin D2]
effect on LPS-induced acute lung injury [1]: improved the LPS-induced acute lung injury or SARS by maintaining the alveolar barrier function

CC(=O)N1CCN(c2ccc(OCC3COC(Cn4ccnc4)(c4ccc(Cl)cc4Cl)O3)cc2)CC1 (centres unmarked) [Ketoconazole]
mortality and secondary outcome measures [2]: did not show any improvement in mortality or in secondary outcome measures

C=C1CC[C@H](O)C/C1=C/C=C1\CCC[C@]2(C)[C@@H]([C@H](C)CCCC(C)(C)O)CC[C@@H]12 [calcifediol, 25-hydroxycholecalciferol]
ICU NO (number of patients not admitted to the ICU) (SARS-CoV-2): 41
ICU YES (number of patients admitted to the ICU) (SARS-CoV-2; vs 13 of 30 without calcifediol, Chi-squared with Yates' correction p=0.0001): 1
mortality rate (COVID-19; 79 hospitalized COVID-19 patients who received calcifediol, vs 20.7% without, p <0.001): 5.1%
HR for mortality (COVID-19; fitted Cox proportional hazards models, calcifediol vs no calcifediol): 0.17 (95% CI: 0.05 to 0.51)
death OR (COVID-19; patients who received calcifediol compared with patients who did not): 0.20 (95% CI, 0.07 to 0.57)
reduction of ICU admissions and death by process (COVID-19; patients with COVID-19, general statement at head of Example 2): at least 25%

C=C1/C(=C\C=C2/CCC[C@]3(C)[C@@H]([C@H](C)CCCC(C)(C)O)CC[C@@H]23)C[C@@H](O)C[C@@H]1O [Calcitriol, 1-alpha,25-dihydroxycholecalciferol]
expression of renin and Ang II (renin and Ang II): suppresses the expression of renin and Ang II

nitric oxide [inhaled NO]
oxygenation, survival, days off a ventilator [3]: only a temporary improvement in oxygenation without the benefit of survival or an increase in days off a ventilator

vitamin D
mortality at 28 days ([4]; by intramuscular or intravenous injection, vs placebo 40.8%): 25.6%
OR, mortality at 28 days ([4]; grouped analysis of the 9 RCTs, 95% CI 0.46-1.15): 0.73
mortality at 28 days ([4]; grouped analysis of the 9 RCTs, vs placebo 21.7%): 20.4%
OR, mortality at 28 days ([4]; high daily dose, CI 95% 0.51-1.36): 0.83
mortality at 28 days ([4]; high daily dose, vs placebo 19.8%): 20.9%
OR, mortality at 28 days ([4]; low daily dose, 95% CI 0.32-1.68): 0.74
mortality at 28 days ([4]; low daily dose, vs placebo 21.3%): 15.6%
OR, mortality at 28 days ([4]; only enterally, 95% CI 0.88-1.57): 1.19
mortality at 28 days ([4]; only enterally, vs placebo 18.2%): 19.9%
duration of the stay in the ICU, standard mean difference [SMD] ([4]; vitamin D vs placebo, 95% CI −0.61 to 0.01): −0.30
duration of hospital stay, SMD ([4]; vitamin D vs placebo): −0.17
duration of mechanical ventilation, SMD ([4]; vitamin D vs placebo): −0.41

CC(=O)N[C@@H](CS)C(=O)O [N-acetylcysteine]
mortality benefit [5]: have not shown any mortality benefits

Source: patent US20230147455A1, “COMPOUNDS FOR THE PROPHYLAXIS AND/OR TREATMENT OF ACUTE RESPIRATORY DISTRESS SYNDROME” (SERVICIO ANDALUZ DE SALUD, priority 2020, published 2023)
